These results are taken from ChEMBL document CHEMBL1955771, “VX-322: a novel dual receptor tyrosine kinase inhibitor for the treatment of acute myelogenous leukemia” (J Med Chem, 2012).

In data set [1] the test system is MV4-11. Briefly: Induction of apoptosis in human MV4-11 cells at 100 nM assessed as apoptotic cells after 24 hrs by annexin V and propidium iodide staining method (reference value: […]). It counts as functional.
The test system of data set [2] is Leukemia cell. The data set is described as follows: Cytotoxicity against human primary leukemia cells isolated from acute myeloid leukemia patient expressing wild type FLT3 assessed as cell viability at 0.0005 to 10 uM after 72 hrs by luciferase assay. It counts as functional, cell-based.
The nature of data set [3]: cells. As to conditions: Homo sapiens, Leukemia cell, 72 h.
Description: Cytotoxicity against human primary leukemia cells isolated from acute myeloid leukemia patient expressing wild type FLT3 assessed as cell viability after 72 hrs by luciferase assay
Data set [4] has as its target Mast/stem cell growth factor receptor Kit (Homo sapiens, UniProt P10721). The data set is described as follows: Inhibition of SCF-induced phosphorylation of c-KIT in human TF1 cells after 1 hr by immunoblot analysis. Type of data set: cell-based, TF-1. On the technique in general: Immunoblotting shows a protein as a band on a membrane.
The test system of data set [5] is MV4-11. The data set is described as follows: cells. The conditions noted are these: Homo sapiens, MV4-11, 72 h.
Description: Cytotoxicity against human MV4-11 cells expressing FLT3-ITD mutation assessed as cell viability after 72 hrs by resazurin dye based fluorescence assay
In data set [6] the target is T1, Tyrosine-protein kinase receptor UFO (Homo sapiens, UniProt P30530).
T1 sequence (P30530 whole entry): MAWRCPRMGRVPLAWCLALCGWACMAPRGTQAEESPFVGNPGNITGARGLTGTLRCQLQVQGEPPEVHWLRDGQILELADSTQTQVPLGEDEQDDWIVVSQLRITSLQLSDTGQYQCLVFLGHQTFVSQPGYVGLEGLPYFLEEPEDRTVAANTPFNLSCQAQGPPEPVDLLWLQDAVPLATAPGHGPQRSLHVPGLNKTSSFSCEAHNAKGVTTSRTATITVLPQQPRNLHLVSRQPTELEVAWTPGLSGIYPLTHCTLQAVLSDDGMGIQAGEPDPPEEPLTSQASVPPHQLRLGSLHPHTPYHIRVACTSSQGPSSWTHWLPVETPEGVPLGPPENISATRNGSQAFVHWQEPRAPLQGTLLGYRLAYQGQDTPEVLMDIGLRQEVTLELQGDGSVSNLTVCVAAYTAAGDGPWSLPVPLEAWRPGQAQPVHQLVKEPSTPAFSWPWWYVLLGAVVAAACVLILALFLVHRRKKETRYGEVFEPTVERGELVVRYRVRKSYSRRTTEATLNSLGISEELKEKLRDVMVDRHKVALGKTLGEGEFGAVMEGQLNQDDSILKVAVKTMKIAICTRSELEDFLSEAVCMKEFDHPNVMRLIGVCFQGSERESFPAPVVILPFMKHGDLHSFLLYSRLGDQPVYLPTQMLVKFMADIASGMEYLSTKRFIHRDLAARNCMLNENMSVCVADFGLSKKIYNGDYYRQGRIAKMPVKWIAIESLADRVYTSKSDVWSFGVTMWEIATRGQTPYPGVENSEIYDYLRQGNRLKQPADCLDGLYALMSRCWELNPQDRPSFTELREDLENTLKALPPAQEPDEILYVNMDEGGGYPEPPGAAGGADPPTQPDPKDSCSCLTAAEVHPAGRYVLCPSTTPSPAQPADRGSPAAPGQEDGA
The data set is described as follows: Inhibition of AXL.

Data set [7] relates to Mus musculus. Briefly: Plasma concentration at steady state in BALB/c mouse xenografted with BA/F3 cells expressing FLT3-ITD mutant at 5 mg/kg, po qd. Further details: dose 5 mg/kg, route oral. The conditions noted are these: in vivo. It counts as ADME, organism-based, BaF3.
Data set [8] has as its system BaF3. The data set is described as follows: Antitumor activity against mouse BA/F3 cells expressing FLT3-ITD mutant xenografted in BALB/c mouse myeloproliferative model assessed as increase in host survival days at 5 mg/kg, po qd relative to control (reference value: 20 days). It counts as functional, organism-based. Also noted: dose 5 mg/kg.
Data set [9] concerns the target Receptor-type tyrosine-protein kinase FLT3 (Homo sapiens, UniProt P36888, ITD). The data set is described as follows: Inhibition of FLT3 ITD mutant mediated ERK 1/2 phosphorylation in human MV4-11 cells by immunoblot analysis. Type of data set: cell-based.
For data set [10], the species on record is Mus musculus. The data set is described as follows: Toxicity in BALB/c mouse assessed as change in body weight after 100 days. As to conditions: in vivo, 2400 h. Type of data set: organism-based.
The species entered for data set [11] is Mus musculus. Briefly: Toxicity in BALB/c mouse assessed as signs of anemia after 100 days. It counts as organism-based. The conditions noted are these: in vivo, 2400 h.
Data set [12] is described as follows: cells. As to conditions: Homo sapiens, Leukemia cell, 72 h. The source holds these as a separate data set.
Description: Cytotoxicity against human primary leukemia cells isolated from acute myeloid leukemia patient expressing FLT3-D835Y mutation assessed as cell viability after 72 hrs by luciferase assay
Data set [13] has as its system TF-1. Briefly: cells. As to conditions: Homo sapiens, TF-1, 72 h.
Description: Cytotoxicity against human TF1 cells expressing FMS assessed as cell viability after 72 hrs by resazurin dye based fluorescence assay
For data set [14], the system named is Kasumi 1. The data set is described as follows: cells. As to conditions: Homo sapiens, Kasumi 1, 72 h.
Description: Cytotoxicity against human Kasumi-1 cells expressing c-KIT assessed as cell viability after 72 hrs by resazurin dye based fluorescence assay
Data set [15] deals with Hepatocyte growth factor receptor (Homo sapiens, UniProt P08581). Briefly: Inhibition of cMET.
Hepatocyte growth factor receptor, sequence (P08581 whole entry): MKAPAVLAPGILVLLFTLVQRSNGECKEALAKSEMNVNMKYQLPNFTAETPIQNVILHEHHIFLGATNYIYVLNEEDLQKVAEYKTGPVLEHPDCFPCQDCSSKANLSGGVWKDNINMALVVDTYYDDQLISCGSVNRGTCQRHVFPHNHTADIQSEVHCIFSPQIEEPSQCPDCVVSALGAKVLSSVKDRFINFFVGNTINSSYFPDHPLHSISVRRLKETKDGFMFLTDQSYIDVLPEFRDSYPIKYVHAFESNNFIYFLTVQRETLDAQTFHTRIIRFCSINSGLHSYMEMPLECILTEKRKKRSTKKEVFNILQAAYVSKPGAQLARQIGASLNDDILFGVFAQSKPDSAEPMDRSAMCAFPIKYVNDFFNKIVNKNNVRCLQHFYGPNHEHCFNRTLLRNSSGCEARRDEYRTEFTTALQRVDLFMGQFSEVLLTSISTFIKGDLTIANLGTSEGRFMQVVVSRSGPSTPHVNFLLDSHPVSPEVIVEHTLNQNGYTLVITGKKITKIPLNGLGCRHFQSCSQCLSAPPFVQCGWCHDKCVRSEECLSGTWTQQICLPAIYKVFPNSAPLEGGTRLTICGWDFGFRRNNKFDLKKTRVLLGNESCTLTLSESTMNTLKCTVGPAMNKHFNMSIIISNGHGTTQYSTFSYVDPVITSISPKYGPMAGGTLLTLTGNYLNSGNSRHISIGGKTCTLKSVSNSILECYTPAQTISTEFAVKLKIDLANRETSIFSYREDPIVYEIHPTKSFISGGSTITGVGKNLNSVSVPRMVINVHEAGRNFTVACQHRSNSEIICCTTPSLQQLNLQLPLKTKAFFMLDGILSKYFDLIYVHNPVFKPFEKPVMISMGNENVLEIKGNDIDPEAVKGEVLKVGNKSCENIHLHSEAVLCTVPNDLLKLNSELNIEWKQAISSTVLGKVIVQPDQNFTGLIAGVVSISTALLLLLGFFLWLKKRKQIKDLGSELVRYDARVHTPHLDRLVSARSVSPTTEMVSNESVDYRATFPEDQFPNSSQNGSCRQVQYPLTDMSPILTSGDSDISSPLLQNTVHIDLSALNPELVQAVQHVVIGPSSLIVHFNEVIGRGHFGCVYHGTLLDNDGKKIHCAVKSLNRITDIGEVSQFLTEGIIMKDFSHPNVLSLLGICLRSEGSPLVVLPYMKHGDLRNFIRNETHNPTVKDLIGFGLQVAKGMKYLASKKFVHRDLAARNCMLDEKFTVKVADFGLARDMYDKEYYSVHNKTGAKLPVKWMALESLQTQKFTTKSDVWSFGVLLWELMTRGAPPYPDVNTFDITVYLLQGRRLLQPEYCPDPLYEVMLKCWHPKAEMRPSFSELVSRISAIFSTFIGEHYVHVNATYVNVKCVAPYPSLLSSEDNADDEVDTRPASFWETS
The test system of data set [16] is TF-1. The data set is described as follows: cells. The conditions noted are these: Homo sapiens, TF-1, 72 h. This is another data set of the same source.
Description: Cytotoxicity against human TF1 cells assessed as cell viability after 72 hrs by resazurin dye based fluorescence assay
Data set [17] relates to Mus musculus. Briefly: Antitumor activity against mouse BA/F3 cells expressing FLT3-ITD mutant xenografted in BALB/c mouse myeloproliferative model assessed as reduction of phosphorylated Stat5 level in spleen administered qd for 2 days measured after 8 hrs by immunohistochemistry analysis. It counts as functional, organism-based. The conditions noted are these: BaF3.
Data set [18] has as its system THP-1. Briefly: cells. As to conditions: Homo sapiens, THP-1, 72 h.
Description: Cytotoxicity against human THP1 cells assessed as cell viability after 72 hrs by resazurin dye based fluorescence assay
The target of data set [19] is Vascular endothelial growth factor receptor 2 (Homo sapiens, UniProt P35968). Briefly: Inhibition of KDR.
Vascular endothelial growth factor receptor 2, sequence (P35968 whole entry): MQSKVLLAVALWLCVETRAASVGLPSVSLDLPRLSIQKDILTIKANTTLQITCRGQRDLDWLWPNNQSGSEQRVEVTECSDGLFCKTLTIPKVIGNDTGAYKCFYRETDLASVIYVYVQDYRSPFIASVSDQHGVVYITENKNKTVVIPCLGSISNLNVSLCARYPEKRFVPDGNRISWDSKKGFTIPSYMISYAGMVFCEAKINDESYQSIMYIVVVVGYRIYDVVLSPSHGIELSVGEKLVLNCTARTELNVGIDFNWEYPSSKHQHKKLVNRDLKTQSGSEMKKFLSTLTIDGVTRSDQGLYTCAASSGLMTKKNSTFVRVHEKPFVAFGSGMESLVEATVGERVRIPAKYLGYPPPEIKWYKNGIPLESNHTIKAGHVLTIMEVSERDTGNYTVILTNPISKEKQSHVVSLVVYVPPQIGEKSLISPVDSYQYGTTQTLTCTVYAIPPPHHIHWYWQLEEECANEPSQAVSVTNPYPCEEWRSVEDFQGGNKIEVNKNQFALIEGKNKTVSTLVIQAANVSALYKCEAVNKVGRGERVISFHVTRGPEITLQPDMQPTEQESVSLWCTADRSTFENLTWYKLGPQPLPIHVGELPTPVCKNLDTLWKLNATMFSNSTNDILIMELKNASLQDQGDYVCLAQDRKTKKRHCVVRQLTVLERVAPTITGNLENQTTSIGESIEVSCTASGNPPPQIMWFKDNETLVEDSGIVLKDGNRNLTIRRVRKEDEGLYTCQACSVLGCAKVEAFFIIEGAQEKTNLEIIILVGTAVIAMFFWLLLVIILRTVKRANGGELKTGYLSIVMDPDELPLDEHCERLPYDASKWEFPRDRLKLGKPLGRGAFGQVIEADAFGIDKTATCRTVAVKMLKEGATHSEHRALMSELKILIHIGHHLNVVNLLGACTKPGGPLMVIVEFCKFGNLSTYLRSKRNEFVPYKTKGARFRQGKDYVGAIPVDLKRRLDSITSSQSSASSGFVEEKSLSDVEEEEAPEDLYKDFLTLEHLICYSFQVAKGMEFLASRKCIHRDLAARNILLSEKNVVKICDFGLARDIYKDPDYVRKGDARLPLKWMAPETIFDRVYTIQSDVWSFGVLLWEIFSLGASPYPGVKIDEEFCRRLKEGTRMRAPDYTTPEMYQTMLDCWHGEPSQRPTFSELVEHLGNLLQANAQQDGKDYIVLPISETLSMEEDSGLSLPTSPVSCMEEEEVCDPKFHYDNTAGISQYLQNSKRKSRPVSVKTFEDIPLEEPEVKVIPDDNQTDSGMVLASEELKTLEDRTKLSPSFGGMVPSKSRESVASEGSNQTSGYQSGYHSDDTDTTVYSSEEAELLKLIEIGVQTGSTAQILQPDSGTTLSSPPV
The species entered for data set [20] is Mus musculus. Briefly: Toxicity in BALB/c mouse assessed as signs of neutropenia after 100 days. It counts as organism-based. The conditions noted are these: in vivo, 2400 h.
For data set [21], the system named is BaF3. Briefly: Antitumor activity against mouse BA/F3 cells expressing FLT3-ITD mutant xenografted in BALB/c mouse myeloproliferative model assessed as increase in host survival days at 0.05 mg/kg, po qd relative to control (reference value: 20 days). It counts as functional, organism-based. Also noted: dose 0.05 mg/kg.
Data set [22] is described as follows: cells. As to conditions: Homo sapiens, Leukemia cell, 72 h. This is another data set of the same source.
Description: Cytotoxicity against human primary leukemia cells isolated from acute myeloid leukemia patient expressing FLT3-ITD mutation assessed as cell viability after 72 hrs by luciferase assay

SMILES strings stand for the structures. pIC50, pKi: −log10 of the molar value.

Broadly, the pIC50 is −log10 of the IC50, conventionally taken in molar units. As usually defined, the pKi is the Ki on a negative log10 scale, so that one unit is a factor of ten. A higher pKi goes with a low Ki.

Mast/stem cell growth factor receptor Kit, sequence (P10721 whole entry): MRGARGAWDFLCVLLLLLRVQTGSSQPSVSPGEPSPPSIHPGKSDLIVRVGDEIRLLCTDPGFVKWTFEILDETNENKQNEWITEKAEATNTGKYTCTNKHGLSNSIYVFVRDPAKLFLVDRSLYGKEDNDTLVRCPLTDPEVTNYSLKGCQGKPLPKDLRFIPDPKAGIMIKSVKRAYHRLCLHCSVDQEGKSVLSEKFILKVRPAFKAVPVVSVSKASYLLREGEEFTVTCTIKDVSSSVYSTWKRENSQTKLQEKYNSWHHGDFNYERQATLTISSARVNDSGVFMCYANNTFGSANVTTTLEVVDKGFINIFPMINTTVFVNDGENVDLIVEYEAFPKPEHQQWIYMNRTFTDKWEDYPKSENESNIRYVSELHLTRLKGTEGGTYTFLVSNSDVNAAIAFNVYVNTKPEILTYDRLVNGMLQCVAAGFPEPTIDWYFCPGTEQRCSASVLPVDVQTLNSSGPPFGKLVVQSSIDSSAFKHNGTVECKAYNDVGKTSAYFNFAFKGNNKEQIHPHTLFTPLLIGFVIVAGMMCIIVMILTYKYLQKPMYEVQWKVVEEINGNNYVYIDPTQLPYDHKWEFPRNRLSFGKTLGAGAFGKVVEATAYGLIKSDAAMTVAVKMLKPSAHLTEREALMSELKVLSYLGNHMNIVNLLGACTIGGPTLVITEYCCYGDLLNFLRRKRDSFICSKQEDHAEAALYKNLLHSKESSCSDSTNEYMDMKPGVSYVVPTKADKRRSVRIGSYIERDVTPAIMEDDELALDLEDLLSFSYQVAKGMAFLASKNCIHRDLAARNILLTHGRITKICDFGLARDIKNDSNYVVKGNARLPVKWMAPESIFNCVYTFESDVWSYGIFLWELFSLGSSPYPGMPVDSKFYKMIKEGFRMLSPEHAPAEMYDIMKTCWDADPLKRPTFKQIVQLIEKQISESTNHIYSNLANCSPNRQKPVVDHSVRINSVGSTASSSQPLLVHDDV
Receptor-type tyrosine-protein kinase FLT3, sequence (P36888 whole entry, looked up, change not shown): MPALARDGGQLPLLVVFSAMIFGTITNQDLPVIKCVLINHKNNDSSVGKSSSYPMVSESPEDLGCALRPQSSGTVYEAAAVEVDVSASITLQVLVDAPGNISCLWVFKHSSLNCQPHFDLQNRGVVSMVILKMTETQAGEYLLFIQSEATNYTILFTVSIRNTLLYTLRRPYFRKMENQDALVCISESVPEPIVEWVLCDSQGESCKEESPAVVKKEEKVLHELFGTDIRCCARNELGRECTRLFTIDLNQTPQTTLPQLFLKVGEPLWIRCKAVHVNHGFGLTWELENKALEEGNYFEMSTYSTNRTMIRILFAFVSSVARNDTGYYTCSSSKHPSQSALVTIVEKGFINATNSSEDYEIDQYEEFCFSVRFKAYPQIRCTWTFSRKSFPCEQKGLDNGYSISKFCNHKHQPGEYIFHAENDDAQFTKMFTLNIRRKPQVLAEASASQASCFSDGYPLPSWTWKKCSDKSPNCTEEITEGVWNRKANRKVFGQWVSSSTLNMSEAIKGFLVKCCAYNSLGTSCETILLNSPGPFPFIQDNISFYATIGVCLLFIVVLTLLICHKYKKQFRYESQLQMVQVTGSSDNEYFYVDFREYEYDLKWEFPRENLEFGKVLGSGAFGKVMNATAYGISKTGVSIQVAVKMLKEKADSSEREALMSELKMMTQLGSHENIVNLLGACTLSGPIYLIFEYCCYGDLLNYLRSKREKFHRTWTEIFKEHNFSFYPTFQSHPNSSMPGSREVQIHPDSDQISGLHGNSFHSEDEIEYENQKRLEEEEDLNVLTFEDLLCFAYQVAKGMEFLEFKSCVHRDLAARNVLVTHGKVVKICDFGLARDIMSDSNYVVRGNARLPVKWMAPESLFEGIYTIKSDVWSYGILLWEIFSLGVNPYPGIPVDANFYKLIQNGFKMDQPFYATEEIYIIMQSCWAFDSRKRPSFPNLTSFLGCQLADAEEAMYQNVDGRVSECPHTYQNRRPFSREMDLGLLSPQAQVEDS

In the case of `Nc1nc(Nc2ccc([C@H]3CC[C@H](N4CCOCC4)CC3)cc2)nn1-c1ccccn1`, the Activity is 8.4% in data set [1]; over 80% in data set [2]; “Non-toxic” in data set [10]; “Non-toxic” in data set [11]; “Dose-dependent effect” in data set [17]; “Non-toxic” in data set [20]. Also, the pIC50 in data set [3] was 7.70; in data set [4], 8.40; in data set [5], 9.70; in data set [9], 8.89; in [12], 6.66; in data set [13], under 5.40. Besides, the pIC50 in data set [14] is 7.52; in [16], under 5.40; in data set [18] it was under 5.40; in data set [22] it was 7.92. Moreover, the inhibition result in data set [4] (TF-1) was “Dose-dependent effect”. The pKi in [6] is 7.40; in [15], 6.89; in data set [19] it was 7.07. Besides, in data set [7], the Cpss stood at 641 ng/mL. The MSD was 62 days in data set [8] and 24 days in data set [21].
